Laboratory results taken from patent US5362915A, “Phenyl-substituted cycloalkenyl compounds useful as PDE IV inhibitors” (SmithKline Beecham Pharma GmbH, priority 1990, dated 1994).
pKi: −log10 of the molar value.

Key:
[1] = target: c-AMP phosphodiesterase (erythrocytes); assay: Inhibition of Cyclic AMP Phosphodiesterase; type: biochemical; settings: erythrocyte phosphodiesterase extract
Description: The procedure used was that described by Arch, J. R. S. and Newsholme, E. A. in Biochem. J. 158, 603, (1976):
Erythrocytes were obtained from Na-citrate (16 mM; 0.1 ml/ml blood) anticoagulated blood by repeated centrifugation with removal of the buff coat and washing with an isotonic buffer (composition in mM: NaCl 13.7, KCl 4, CaCl2.2 H2 O 1.8, Na2 HPO4.12 H2 O 0.8, NaH2 PO4 0.2, MgSO4.7 H2 O 0.7, Hepes 3.4; pH 7.4).
The phosphodiesterase was extracted by mixing the erythrocytes with 4 volumes of 7 mM phosphate buffer, pH7.4, followed by sonification (3×10 sec; 100 W) and then centrifuging for 30 min at 4200×g.
All supernatants were diluted in the extraction medium and assayed for phosphodiesterase activity within 6 hours of preparation, using the radiochemical procedure described in the above mentioned reference.

[2] = test system: PDE Ib (Ca^2 +/calmodulin-stimulated); settings: porcine aorta; cited from earlier work
[3] = test system: PDE Ic (Ca^2 +/calmodulin-stimulated); settings: guinea-pig heart; cited from earlier work
PDE III (cGMP-inhibited) = settings: guinea-pig heart; cited from earlier work
[4] = test system: PDE IV (Ro 20-1724-inhibited); settings: human monocyte; cited from earlier work

pKi [1]	SMILES	other results
5.68	COc1ccc(C2CCCCC2)cc1OC1CCCC1 [Example 5, 1-Methoxy-2-cyclopentyloxy-4-cyclohexyl-benzene]	
4.96	COc1ccc(C2=CC(=O)CC2)cc1OC [Example 1, 1-(3,4-Dimethoxyphenyl)-cyclopent-1,2-ene-3-one]	
	Nc1nc2c(ncn2[C@@H]2O[C@@H]3COP(=O)(O)O[C@H]3[C@H]2O)c(=O)[nH]1 [cGMP]	Km [2]: 5 µM; Km [3]: 2 µM; Km (PDE III (cGMP-inhibited)): 8 µM; Km [4]: 38 µM
4.85	COc1ccc(C2CCCCC2)cc1OC [Example 6, 1,2-Dimethoxy-4-cyclohexyl-benzene]	
5.96	COc1ccc(C2=CC(=O)CC2)cc1OC1CCCC1 [Example 2, 1-(3-(Cyclopentyloxy-4-methoxy)-phenyl)-cyclopent-1,2-ene-3-one]	
6.15	COc1ccc(C2=CC(=O)CCC2)cc1OC1CCCC1 [Example 3]	
5.52	COc1ccc(C2=CC(=O)CCC2)cc1OC [Example 4, 1-(3,4-Dimethoxyphenyl)-cyclohex-1,2-ene-3-one]	
